Assay results: ChEMBL document CHEMBL5303762, “Data for DCP probe BI-8668” (2023)

Experiments:
[1] = biological target: Cannabinoid receptor 1 (Homo sapiens) (UniProt P21554); assay: CB1(HU)_AGON Eurofins SafetyScreen44 (BI); details: filed as agonist, Compound concentration 10.0 uM
[2] = biological target: 5-hydroxytryptamine receptor 1B (Homo sapiens) (UniProt P28222); details: Compound concentration 10.0 uM
[3] = biological target: Beta-3 adrenergic receptor (Homo sapiens) (UniProt P13945); details: Compound concentration 10.0 uM
Chain of Beta-3 adrenergic receptor (Homo sapiens) (P13945 whole entry, looked up): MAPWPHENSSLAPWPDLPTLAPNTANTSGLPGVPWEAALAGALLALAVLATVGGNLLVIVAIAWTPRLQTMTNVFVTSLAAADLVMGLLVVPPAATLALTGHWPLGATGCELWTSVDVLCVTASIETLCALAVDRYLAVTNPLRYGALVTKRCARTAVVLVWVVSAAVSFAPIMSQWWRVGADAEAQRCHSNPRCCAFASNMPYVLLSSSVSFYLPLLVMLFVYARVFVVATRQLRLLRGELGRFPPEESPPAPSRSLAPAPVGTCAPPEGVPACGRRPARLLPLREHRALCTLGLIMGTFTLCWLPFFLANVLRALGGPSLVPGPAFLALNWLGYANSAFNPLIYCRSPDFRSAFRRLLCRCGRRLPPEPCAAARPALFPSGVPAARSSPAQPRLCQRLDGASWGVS

[4] = biological target: Muscarinic acetylcholine receptor M3 (Homo sapiens) (UniProt P20309); details: Compound concentration 10.0 uM
Chain of Muscarinic acetylcholine receptor M3 (Homo sapiens) (P20309 whole entry, looked up): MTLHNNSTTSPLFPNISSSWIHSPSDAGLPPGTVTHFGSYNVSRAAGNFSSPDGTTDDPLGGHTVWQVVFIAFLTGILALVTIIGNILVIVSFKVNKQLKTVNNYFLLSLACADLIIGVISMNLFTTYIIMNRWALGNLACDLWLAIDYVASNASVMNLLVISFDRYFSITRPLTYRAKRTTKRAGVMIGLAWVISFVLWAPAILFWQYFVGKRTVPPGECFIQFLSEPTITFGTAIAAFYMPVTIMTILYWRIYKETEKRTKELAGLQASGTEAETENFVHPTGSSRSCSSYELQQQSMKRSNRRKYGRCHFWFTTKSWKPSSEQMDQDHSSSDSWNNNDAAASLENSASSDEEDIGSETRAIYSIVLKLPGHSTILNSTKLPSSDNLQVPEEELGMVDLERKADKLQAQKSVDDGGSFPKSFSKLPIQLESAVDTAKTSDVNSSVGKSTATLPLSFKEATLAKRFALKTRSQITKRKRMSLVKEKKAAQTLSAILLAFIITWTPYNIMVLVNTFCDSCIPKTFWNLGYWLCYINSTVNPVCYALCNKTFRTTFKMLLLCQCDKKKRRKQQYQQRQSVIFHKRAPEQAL

[5] = biological target: T1, 5-hydroxytryptamine receptor 3A (Homo sapiens) (UniProt P46098); details: Compound concentration 10.0 uM
T1 sequence (whole entry): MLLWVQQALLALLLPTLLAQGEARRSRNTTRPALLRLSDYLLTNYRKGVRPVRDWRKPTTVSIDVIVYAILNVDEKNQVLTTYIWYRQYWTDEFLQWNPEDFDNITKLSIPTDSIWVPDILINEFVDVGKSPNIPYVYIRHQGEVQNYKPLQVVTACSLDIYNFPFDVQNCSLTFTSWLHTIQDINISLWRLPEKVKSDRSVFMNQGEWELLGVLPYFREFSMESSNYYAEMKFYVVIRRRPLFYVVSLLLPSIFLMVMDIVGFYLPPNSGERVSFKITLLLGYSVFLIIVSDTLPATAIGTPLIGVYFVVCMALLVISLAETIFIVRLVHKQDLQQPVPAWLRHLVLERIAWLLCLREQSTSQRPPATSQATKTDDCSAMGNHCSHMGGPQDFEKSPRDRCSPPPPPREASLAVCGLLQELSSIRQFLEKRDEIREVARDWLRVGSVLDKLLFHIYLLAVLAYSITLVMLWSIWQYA

[6] = biological target: Sodium-dependent noradrenaline transporter (Homo sapiens) (UniProt P23975); details: Compound concentration 10.0 uM
Chain of Sodium-dependent noradrenaline transporter (Homo sapiens) (P23975 whole entry): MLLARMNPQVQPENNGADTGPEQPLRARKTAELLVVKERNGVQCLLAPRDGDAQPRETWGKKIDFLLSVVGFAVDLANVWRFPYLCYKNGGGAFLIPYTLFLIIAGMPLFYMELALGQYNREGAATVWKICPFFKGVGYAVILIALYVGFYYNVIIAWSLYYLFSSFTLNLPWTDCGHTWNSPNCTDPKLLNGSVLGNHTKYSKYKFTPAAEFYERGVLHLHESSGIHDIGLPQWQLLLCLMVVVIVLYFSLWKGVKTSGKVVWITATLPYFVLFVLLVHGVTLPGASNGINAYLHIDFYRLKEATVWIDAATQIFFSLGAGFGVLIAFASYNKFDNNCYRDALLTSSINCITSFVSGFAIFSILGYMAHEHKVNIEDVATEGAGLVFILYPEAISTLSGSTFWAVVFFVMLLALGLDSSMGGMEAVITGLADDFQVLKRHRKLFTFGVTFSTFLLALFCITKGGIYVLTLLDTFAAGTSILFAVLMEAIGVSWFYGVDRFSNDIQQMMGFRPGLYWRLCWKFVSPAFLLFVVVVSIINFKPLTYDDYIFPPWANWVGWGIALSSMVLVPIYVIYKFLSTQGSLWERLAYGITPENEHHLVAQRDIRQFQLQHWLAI

[7] = biological target: Muscarinic acetylcholine receptor M3 (Homo sapiens) (UniProt P20309); assay: M3(H)ANTAG Eurofins SafetyScreen44 (BI); details: filed as antagonist, Compound concentration 10.0 uM
[8] = biological target: Alpha-2C adrenergic receptor (Homo sapiens) (UniProt P18825); details: Compound concentration 10.0 uM
Chain of Alpha-2C adrenergic receptor (Homo sapiens) (P18825 whole entry): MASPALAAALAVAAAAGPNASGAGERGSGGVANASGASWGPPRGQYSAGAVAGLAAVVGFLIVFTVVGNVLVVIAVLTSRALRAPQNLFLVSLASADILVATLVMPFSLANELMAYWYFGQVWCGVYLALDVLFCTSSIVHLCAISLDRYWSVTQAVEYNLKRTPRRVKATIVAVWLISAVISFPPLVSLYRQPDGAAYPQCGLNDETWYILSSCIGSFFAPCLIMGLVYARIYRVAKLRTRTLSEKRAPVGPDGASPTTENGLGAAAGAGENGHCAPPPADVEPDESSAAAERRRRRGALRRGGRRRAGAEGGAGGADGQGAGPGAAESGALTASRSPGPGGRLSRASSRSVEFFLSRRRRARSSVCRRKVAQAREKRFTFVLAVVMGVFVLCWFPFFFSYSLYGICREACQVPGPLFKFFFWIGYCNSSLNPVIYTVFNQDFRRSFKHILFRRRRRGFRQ

[9] = biological target: Prostaglandin G/H synthase 2 (Homo sapiens) (UniProt P35354); assay: COX2_HU Eurofins SafetyScreen44 (BI); details: Compound concentration 10.0 uM
[10] = biological target: T2, Alpha-1A adrenergic receptor (Homo sapiens) (UniProt P35348); assay: ALPHA1A(H)AGON Eurofins SafetyScreen44 (BI); details: filed as agonist, Compound concentration 10.0 uM
T2 sequence (whole entry): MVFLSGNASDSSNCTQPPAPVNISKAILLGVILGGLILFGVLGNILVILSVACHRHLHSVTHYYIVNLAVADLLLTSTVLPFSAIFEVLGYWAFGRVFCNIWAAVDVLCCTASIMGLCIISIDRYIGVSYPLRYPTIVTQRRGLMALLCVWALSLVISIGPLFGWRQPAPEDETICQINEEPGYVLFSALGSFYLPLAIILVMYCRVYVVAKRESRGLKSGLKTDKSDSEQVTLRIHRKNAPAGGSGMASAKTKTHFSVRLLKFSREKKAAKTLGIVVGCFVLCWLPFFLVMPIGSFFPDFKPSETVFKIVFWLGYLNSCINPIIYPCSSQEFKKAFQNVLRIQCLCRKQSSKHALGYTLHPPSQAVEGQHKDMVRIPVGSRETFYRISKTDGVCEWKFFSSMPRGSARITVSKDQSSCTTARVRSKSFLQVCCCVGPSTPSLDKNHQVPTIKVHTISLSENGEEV

[11] = biological target: Beta-1 adrenergic receptor (Homo sapiens) (UniProt P08588); details: Compound concentration 10.0 uM
Chain of Beta-1 adrenergic receptor (Homo sapiens) (P08588 whole entry, looked up): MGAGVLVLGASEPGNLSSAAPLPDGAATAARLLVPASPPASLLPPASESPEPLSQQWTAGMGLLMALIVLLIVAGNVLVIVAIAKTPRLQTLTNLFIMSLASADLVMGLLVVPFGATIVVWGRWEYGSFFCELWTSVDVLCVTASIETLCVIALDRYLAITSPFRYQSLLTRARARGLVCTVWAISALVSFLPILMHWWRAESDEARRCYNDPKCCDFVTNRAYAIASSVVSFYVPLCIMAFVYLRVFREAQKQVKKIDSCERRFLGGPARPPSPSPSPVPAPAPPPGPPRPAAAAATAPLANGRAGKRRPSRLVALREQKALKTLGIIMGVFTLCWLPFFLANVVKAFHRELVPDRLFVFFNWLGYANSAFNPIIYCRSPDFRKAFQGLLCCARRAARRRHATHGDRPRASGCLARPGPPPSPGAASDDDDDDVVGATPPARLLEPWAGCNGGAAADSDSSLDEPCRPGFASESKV

[12] = biological target: Histamine H2 receptor (Homo sapiens) (UniProt P25021); details: Compound concentration 10.0 uM
Chain of Histamine H2 receptor (Homo sapiens) (P25021 whole entry): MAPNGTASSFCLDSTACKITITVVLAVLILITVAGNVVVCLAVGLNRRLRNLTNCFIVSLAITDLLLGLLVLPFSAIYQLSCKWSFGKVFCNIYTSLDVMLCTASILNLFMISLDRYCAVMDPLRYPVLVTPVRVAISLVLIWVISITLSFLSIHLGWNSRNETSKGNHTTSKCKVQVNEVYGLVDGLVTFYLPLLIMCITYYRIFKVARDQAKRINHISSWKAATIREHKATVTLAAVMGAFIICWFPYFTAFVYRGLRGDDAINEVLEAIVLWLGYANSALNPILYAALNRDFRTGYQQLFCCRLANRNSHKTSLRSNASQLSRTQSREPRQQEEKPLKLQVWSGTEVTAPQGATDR

[13] = biological target: T3, Muscarinic acetylcholine receptor M2 (Homo sapiens) (UniProt P08172); assay: M2(H)AGON Eurofins SafetyScreen44 (BI); details: filed as agonist, Compound concentration 10.0 uM
T3 sequence (whole entry): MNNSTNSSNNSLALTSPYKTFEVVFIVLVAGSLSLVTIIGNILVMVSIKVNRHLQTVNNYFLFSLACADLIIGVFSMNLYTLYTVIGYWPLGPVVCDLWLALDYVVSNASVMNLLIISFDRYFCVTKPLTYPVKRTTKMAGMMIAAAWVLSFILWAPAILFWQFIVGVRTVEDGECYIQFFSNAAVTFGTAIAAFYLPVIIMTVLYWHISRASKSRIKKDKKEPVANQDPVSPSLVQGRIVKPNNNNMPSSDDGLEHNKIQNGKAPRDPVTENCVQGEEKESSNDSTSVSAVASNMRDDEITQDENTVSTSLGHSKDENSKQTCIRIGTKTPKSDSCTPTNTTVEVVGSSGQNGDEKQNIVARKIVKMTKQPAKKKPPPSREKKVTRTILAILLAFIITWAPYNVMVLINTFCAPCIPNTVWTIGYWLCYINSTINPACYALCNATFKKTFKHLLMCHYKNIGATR

[14] = biological target: Beta-2 adrenergic receptor (Homo sapiens) (UniProt P07550); details: Compound concentration 10.0 uM
Chain of Beta-2 adrenergic receptor (Homo sapiens) (P07550 whole entry, looked up): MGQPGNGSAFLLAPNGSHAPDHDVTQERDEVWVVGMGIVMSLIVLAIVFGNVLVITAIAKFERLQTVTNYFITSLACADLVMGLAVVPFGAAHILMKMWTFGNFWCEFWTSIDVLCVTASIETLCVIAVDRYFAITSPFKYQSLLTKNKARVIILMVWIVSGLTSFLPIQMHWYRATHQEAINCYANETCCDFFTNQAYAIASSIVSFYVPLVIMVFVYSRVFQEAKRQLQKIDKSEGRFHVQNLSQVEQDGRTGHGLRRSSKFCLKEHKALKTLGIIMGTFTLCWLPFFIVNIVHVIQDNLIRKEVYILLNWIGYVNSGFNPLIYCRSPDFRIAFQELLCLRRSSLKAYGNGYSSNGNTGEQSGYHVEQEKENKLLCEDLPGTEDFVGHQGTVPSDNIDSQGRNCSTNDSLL

[15] = biological target: Sodium-dependent serotonin transporter (Homo sapiens) (UniProt P31645); details: Compound concentration 10.0 uM
Chain of Sodium-dependent serotonin transporter (Homo sapiens) (P31645 whole entry, looked up): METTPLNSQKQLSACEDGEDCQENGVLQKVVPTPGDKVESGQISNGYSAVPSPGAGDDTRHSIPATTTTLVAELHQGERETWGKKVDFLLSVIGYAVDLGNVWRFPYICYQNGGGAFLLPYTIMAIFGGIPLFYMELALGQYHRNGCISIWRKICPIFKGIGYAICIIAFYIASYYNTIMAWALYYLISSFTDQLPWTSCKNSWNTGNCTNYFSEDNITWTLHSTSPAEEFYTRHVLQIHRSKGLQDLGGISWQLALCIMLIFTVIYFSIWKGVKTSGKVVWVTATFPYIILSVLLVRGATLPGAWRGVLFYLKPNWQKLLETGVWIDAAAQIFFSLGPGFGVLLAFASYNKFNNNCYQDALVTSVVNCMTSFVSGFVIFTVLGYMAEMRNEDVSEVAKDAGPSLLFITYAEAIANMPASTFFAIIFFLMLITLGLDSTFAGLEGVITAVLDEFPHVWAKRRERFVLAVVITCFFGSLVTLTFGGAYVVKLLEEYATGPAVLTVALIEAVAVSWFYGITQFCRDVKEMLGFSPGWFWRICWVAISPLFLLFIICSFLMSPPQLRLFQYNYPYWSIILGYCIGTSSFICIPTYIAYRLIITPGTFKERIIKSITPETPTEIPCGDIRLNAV

[16] = biological target: T3, Muscarinic acetylcholine receptor M2 (Homo sapiens); assay: M2(H)ANTAG Eurofins SafetyScreen44 (BI); details: filed as antagonist, Compound concentration 10.0 uM
[17] = biological target: Histamine H4 receptor (Homo sapiens) (UniProt Q9H3N8); details: Compound concentration 10.0 uM
[18] = biological target: T4, Alpha-2A adrenergic receptor (Homo sapiens) (UniProt P08913); details: Compound concentration 10.0 uM
T4 sequence (whole entry): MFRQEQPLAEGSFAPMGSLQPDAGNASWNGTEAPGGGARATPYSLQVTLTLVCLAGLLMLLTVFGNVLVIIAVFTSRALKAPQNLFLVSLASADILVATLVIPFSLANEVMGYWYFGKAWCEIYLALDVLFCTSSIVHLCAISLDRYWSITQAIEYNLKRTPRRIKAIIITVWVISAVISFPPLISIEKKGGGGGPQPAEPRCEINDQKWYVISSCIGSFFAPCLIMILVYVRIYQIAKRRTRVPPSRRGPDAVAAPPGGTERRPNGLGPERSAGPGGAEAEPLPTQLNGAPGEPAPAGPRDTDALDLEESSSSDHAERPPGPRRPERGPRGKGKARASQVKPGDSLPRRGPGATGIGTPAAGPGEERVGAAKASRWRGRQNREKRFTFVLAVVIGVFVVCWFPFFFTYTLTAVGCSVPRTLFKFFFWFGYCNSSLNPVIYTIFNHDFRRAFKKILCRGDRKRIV

[19] = biological target: Sigma non-opioid intracellular receptor 1 (Homo sapiens) (UniProt Q99720); details: Compound concentration 10.0 uM
Chain of Sigma non-opioid intracellular receptor 1 (Homo sapiens) (Q99720 whole entry): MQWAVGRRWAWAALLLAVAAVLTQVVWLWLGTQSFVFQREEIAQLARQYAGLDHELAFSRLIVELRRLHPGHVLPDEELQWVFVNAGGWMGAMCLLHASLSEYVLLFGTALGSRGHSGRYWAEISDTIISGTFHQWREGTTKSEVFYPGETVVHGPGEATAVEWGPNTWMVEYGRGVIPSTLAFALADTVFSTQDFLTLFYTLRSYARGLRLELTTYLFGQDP

[20] = biological target: T3, Muscarinic acetylcholine receptor M2 (Homo sapiens); details: Compound concentration 10.0 uM

Chain of 5-hydroxytryptamine receptor 1B (Homo sapiens) (P28222 whole entry): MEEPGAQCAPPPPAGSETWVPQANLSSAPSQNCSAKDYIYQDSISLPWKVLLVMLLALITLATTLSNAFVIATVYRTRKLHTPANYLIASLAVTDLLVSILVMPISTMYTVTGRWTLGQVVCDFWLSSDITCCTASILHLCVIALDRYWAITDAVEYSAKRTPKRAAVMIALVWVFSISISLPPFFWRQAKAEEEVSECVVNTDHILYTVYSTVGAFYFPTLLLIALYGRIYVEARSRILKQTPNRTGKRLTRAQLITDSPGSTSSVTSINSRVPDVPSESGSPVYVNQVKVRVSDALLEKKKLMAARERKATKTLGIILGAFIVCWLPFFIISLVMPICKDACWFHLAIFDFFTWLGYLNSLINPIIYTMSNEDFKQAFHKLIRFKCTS

inhibition [2] [%]	inhibition [3] [%]	inhibition [4] [%]	inhibition [5] [%]	inhibition [6] [%]	inhibition [8] [%]	inhibition [11] [%]	inhibition [12] [%]	inhibition [14] [%]	inhibition [15] [%]	inhibition [17] [%]	inhibition [18] [%]	inhibition [19] [%]	inhibition [20] [%]	SMILES	residual activity [1] [%]	residual activity [7] [%]	residual activity [9] [%]	residual activity [10] [%]	residual activity [13] [%]	residual activity [16] [%]
														CCn1c(CNC(=O)c2ncc(C)nc2N)[n+](CC)c2ccc(C(=O)N(C)CN(C)C)cc21	111					
8.35	-2.81	23.3	8.37	-7.54	0.47	4.25	27.9	-5.7	8.39	-7.37	0.56	20	44.6	CCn1c(CNC(=O)c2nc(Cl)cnc2N)[n+](CC)c2ccc(C(=O)N(C)CCN(C)C)cc21		96	85	99.6	85.2	91
